Reference: US20240058459A1 (Ashvattha Therapeutics, Inc., priority 2019, published 2024)
Each block holds one molecule with its values, some of them ahead of it.

Legend:
VEGFR2 = VEGFR2 (Homo sapiens (Human), UniProt P35968); assay: In vitro kinase binding assay (VEGFR2)
Experimental: All reactions performed in polypropylene 384-well plate. Each was a final volume of 0.02 ml.

TIE II = TIE II (Homo sapiens (Human), UniProt Q02763); assay: TIE II inhibition, dissociation constant; type: binding
[1] = rat, in vivo, 40.21 mg/kg
[2] = tested on: choroidal neovascular (CNV) lesions; assay: Localization and persistence in CNV lesions after systemic administration, laser-induced CNV mouse model; type: in vivo, C57BL/6 mice
Experimental: Two studies were conducted in C57BL/6 mice (n=5/group) administered intravenously 100 μL of D-ICG or vehicle control. In the first study, mice were administered D-ICG or vehicle control at 1, 3, 7, or 14 days post-laser and eyes were analyzed by optical coherence tomography (OCT) with ICG imaging at 4 or 24 hr post-dose. Flat-mounts of the sclera-choroid/retinal pigment epithelial (RPE) complexes were stained by fluorescently tagged isolectin and IBA-1.
The second study evaluated the localization and persistence of dendrimer conjugates in the CNV lesion. In the second study, mice were administered intravenously 100 μL of D-ICG and 100 μL of D-TRITC (1 hr after D-ICG) or vehicle control at 24 hr post-laser. Mice analyzed and sacrificed at 4, 7, 14, 21, and 28 days post-dose (n=5/group). For control group, free ICG (1.23 mg/mL), 100 μL, IV dosed 24 hr post-laser and mice analyzed and sacrificed at 2, 4, 7, and 14 days post-dose (n=5/group). Eyes analyzed by optical coherence tomography (OCT) with ICG imaging. Flat-mounts of the sclera-choroid/retinal pigment epithelial (RPE) complexes were stained by fluorescently tagged IBA-1 alone.

Toxicokinetics in rats = type: in vivo, Sprague-Dawley rats; details: D-4517 12 mg/kg daily IP, sunitinib 30 mg/kg daily oral
Experimental: Toxicokinetic data was collected in rats. […] Blood samples were collected, and plasma drug concentrations were determined. Noncompartmental toxicokinetic parameters were estimated.

[3] = tested on: choroidal neovascularization (CNV); assay: Laser-induced CNV mouse model, single IP dose, duration of efficacy; type: in vivo, C57BL/6 mice; details: single IP dose (aflibercept IVT)
[4] = tested on: choroidal neovascularization (CNV); assay: Laser-induced CNV mouse model, single IV dose; details: single dose 24 hr after laser (IV; aflibercept IVT 40 μg); CNV area 7 days after laser
Experimental: As a positive control group, a cohort of mice were administered aflibercept (EYLEA®) intravitreally (IVT; 1 μL, 40 μg). The CNV area was measured 7 days after laser treatment by both fluorescein angiography and flat-mounts of the sclera-choroid/RPE complexes stained with isolectin IB4.

VEGFR2, sequence (P35968 20-1356): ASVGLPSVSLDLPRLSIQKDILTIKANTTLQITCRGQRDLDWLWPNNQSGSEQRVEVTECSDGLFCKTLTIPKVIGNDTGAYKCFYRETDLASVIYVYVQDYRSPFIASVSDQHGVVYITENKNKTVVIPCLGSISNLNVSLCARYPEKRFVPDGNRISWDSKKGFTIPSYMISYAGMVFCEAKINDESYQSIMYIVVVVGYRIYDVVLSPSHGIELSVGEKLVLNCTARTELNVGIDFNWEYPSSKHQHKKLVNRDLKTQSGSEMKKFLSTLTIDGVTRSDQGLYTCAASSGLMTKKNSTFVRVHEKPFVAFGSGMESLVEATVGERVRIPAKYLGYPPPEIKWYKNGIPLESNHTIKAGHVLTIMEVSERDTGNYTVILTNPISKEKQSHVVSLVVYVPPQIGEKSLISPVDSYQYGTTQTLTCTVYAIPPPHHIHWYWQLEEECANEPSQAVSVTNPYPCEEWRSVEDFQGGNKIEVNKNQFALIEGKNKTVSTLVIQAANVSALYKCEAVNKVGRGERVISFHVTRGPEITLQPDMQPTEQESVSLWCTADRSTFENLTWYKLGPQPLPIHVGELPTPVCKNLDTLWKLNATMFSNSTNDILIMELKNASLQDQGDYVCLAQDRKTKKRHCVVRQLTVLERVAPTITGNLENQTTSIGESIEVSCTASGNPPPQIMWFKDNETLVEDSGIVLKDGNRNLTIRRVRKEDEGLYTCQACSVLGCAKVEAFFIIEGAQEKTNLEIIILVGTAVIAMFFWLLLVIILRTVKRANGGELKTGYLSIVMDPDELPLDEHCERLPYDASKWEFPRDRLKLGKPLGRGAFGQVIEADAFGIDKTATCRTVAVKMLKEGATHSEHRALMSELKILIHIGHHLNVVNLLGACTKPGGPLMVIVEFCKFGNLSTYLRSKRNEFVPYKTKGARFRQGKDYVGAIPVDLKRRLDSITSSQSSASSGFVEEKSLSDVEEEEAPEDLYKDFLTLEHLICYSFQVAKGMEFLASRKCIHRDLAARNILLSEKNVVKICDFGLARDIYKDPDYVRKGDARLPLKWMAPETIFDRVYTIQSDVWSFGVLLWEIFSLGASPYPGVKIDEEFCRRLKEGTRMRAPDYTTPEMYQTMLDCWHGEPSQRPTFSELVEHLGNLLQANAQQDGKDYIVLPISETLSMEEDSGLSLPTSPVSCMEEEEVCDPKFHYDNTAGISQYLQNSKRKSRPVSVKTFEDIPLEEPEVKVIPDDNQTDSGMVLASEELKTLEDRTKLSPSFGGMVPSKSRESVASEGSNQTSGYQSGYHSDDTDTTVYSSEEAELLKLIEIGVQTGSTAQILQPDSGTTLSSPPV
TIE II, sequence (Q02763 23-1124): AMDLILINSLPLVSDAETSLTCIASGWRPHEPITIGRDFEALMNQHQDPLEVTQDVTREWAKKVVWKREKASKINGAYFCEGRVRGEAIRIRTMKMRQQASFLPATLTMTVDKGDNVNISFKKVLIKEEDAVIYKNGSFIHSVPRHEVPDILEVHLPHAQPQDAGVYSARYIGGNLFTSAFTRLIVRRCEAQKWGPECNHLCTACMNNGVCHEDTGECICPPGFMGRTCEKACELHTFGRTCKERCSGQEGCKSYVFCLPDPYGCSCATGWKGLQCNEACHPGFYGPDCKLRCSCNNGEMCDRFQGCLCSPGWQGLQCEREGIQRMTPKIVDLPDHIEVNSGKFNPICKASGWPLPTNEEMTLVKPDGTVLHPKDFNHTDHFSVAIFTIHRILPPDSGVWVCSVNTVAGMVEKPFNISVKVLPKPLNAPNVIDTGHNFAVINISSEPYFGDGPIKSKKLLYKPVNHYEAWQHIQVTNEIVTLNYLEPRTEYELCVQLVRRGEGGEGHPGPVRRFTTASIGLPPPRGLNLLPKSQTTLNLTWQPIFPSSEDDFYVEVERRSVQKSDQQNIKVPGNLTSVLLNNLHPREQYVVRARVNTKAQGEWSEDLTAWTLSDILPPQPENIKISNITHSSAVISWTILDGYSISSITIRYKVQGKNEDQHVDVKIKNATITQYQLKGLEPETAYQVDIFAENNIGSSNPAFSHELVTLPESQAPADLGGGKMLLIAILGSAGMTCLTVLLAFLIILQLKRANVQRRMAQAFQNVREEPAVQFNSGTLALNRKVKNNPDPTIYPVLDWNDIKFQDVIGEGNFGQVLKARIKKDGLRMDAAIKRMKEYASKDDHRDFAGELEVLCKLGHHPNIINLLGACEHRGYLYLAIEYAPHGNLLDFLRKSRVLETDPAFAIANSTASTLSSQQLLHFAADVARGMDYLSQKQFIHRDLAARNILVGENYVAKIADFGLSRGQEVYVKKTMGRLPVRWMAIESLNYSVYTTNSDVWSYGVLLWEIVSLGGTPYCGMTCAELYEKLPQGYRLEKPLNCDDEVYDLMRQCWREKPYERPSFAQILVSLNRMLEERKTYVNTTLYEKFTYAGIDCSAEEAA

Kd (VEGFR2): 1 nM
Molecule: Cc1[nH]c(/C=C2\C(=O)Nc3ccc(F)cc32)c(C)c1C(=O)NCCNC(=O)CCOCCOCCOCCN=[N+]=[N-]

Kd (TIE II): ~8.8 nM
Molecule: COC(=O)Nc1nc2ccc(Oc3ccc(NC(=O)Nc4cc(C(F)(F)F)ccc4OCCCCN=[N+]=[N-])cc3)cc2[nH]1 [Structure V]

Molecule: CCN(CC)CCNC(=O)c1c(C)[nH]c(/C=C2\C(=O)Nc3ccc(F)cc32)c1C [Sunitinib Malate, reference compound]
overall tolerability [1]: various clinical and pathological changes in addition to mortality in female rats

time at which no longer present in the lesions ([2]; free ICG control groups, IV 24 hr post-laser): 7-14 days post-laser | uptake/distribution in CNV lesions ([2]; systemic administration, within 24 hr after dosing): distributes non-specifically
Molecule: CC1(C)C(/C=C/C=C/C=C/C=C2\N(CCCCS(=O)(=O)[O-])c3ccc4ccccc4c3C2(C)C)=[N+](CCCCS(=O)(=O)[O-])c2ccc3ccccc3c21.[Na+] [free ICG, indocyanine green]

Molecule: CCN(CC)CCNC(=O)c1c(C)[nH]c(/C=C2\C(=O)Nc3ccc(F)cc32)c1C [free sunitinib, sunitinib]
AUC estimates, sunitinib compared to D-4517 (Toxicokinetics in rats): higher

Molecule: aflibercept
CNV area ([3]; day 7 post-treatment): Significant reduction in the CNV area | CNV area ([3]; day 14 post-treatment): not sustained | reduction in CNV area compared with vehicle control [4]: Statistically significant reductions in the CNV area
